Results on one compound are retold here after article PMC2916031 (Journal of molecular biology, 2010).

Assay [1] deals with C-terminally truncated MEAT1 (Trypanosoma brucei, UniProt C7AJA4). Put plainly: U-addition to […]'-labelled RNA, denaturing gel. The assay is classed as biochemical. The following applies: 100 µM UTP, 300 nM enzyme, 1 µM RNA, Mg acetate, pH 8.0, 27 °C.
The next assay concerns the target full-length TbMEAT1 (Trypanosoma brucei, UniProt C7AJA4). Nature of the assay: U-addition to […]'-labelled RNA, denaturing gel. The assay is classed as biochemical. The following applies: 100 µM UTP, 300 nM enzyme, 1 µM RNA, Mg acetate, pH 8.0, 27 °C.

C-terminally truncated MEAT1, sequence (C7AJA4 1-381): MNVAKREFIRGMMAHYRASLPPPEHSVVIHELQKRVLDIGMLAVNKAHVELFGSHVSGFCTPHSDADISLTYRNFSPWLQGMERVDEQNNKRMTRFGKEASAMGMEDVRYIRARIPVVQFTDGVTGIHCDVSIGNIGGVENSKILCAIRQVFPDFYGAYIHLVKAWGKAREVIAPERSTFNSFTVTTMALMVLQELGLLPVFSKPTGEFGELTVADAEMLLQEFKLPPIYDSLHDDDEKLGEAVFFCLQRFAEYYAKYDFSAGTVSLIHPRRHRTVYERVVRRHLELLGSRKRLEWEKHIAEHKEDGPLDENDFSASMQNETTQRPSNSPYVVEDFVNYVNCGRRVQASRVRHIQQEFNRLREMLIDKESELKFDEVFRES
full-length TbMEAT1, sequence (C7AJA4 whole entry): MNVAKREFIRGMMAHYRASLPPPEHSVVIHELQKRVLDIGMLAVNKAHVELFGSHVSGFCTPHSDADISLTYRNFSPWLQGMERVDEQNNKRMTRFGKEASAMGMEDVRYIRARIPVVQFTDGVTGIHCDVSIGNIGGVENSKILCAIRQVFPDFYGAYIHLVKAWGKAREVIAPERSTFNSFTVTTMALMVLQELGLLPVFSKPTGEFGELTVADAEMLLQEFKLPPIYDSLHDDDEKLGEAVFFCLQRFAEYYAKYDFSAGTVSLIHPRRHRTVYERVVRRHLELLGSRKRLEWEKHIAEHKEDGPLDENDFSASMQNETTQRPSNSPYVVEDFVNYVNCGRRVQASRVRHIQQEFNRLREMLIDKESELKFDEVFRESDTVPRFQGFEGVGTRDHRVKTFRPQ

`O=c1ccn([C@@H]2O[C@H](COP(=O)(O)OP(=O)(O)OP(=O)(O)O)[C@@H](O)[C@H]2O)c(=O)[nH]1` [UTP]: the “U-addition to 5'-labelled RNA, denaturing gel” value in assay [1] was “neither limited proteolysis nor genetically-engineered C-terminal deletion had any discernable effects on enzymatic activity”; at full-length TbMEAT1, “U-addition patterns for full-length TbMEAT1”.
